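Five compound concentrations were applied to cells in 96-well plates for 48 hours; endpoints were derived by simple linear interpolation of the resulting dose-response curve. Abbreviation: GI50, concentration required for 50% inhibition of growth. TGI: total growth inhibition.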
Key:
Experiment in all cases: NCI anticancer screen, dose series, 48 h
NCI-H23 lung = test system: NCI-H23 lung
MDA-MB-231 breast = test system: MDA-MB-231 breast
COLO 205 colon = test system: COLO 205 colon
HS 578T breast = test system: HS 578T breast
EKVX NSCLC = test system: EKVX NSCLC
HCC-2998 colon = test system: HCC-2998 colon
HL-60(TB) leukemia = test system: HL-60(TB) leukemia
SK-MEL-2 melanoma = test system: SK-MEL-2 melanoma
A549 NSCLC = test system: A549 NSCLC
T-47D breast = test system: T-47D breast
UACC-257 melanoma = test system: UACC-257 melanoma
SF-539 CNS = test system: SF-539 CNS
SK-MEL-28 melanoma = test system: SK-MEL-28 melanoma
SW-620 colon = test system: SW-620 colon
HCT-116 colon = test system: HCT-116 colon
DU-145 prostate = test system: DU-145 prostate
NCI-H226 lung = test system: NCI-H226 lung
CCRF-CEM leukemia = test system: CCRF-CEM leukemia
LOX IMVI melanoma = test system: LOX IMVI melanoma
SN12C renal = test system: SN12C renal
NCI-H522 lung = test system: NCI-H522 lung
PC-3 prostate = test system: PC-3 prostate
RPMI-8226 leukemia = test system: RPMI-8226 leukemia
KM12 colon = test system: KM12 colon
SK-MEL-5 melanoma = test system: SK-MEL-5 melanoma
NCI-H460 lung = test system: NCI-H460 lung
U251 CNS = test system: U251 CNS
OVCAR-8 ovarian = test system: OVCAR-8 ovarian
M14 melanoma = test system: M14 melanoma
TK-10 renal = test system: TK-10 renal
OVCAR-5 ovarian = test system: OVCAR-5 ovarian
SK-OV-3 ovarian = test system: SK-OV-3 ovarian
HCT-15 colon = test system: HCT-15 colon
CAKI-1 renal = test system: CAKI-1 renal
UACC-62 melanoma = test system: UACC-62 melanoma
NCI/ADR-RES ovarian = test system: NCI/ADR-RES ovarian
IGROV1 ovarian = test system: IGROV1 ovarian
HT29 colon = test system: HT29 colon
OVCAR-3 ovarian = test system: OVCAR-3 ovarian
SF-268 CNS = test system: SF-268 CNS
ACHN renal = test system: ACHN renal
OVCAR-4 ovarian = test system: OVCAR-4 ovarian
UO-31 renal = test system: UO-31 renal
SR leukemia = test system: SR leukemia
MDA-MB-435 = test system: MDA-MB-435
MCF7 breast = test system: MCF7 breast
A498 renal = test system: A498 renal
MOLT-4 leukemia = test system: MOLT-4 leukemia
HOP-62 NSCLC = test system: HOP-62 NSCLC
SNB-19 CNS = test system: SNB-19 CNS
SF-295 CNS = test system: SF-295 CNS
MALME-3M melanoma = test system: MALME-3M melanoma
HOP-92 NSCLC = test system: HOP-92 NSCLC
SNB-75 CNS = test system: SNB-75 CNS
BT-549 breast = test system: BT-549 breast
RXF 393 renal = test system: RXF 393 renal

Which results are given for `COc1cc(-n2cc(-c3cc(O)c(C/C=C(\C)CCC=C(C)C)c(O)c3)nn2)cc2c1O[C@]1(C)CC[C@@H](O)C(C)(C)[C@H]1C2`?
GI50 (NCI-H23 lung): 3260 nM; TGI (NCI-H23 lung): 31300 nM; GI50 (MDA-MB-231 breast): 275 nM; TGI (MDA-MB-231 breast): 3240 nM; GI50 (COLO 205 colon): 3760 nM; TGI (COLO 205 colon): 22200 nM; GI50 (HS 578T breast): 45.2 nM; TGI (HS 578T breast): 3410 nM; GI50 (EKVX NSCLC): 2280 nM; TGI (EKVX NSCLC): 44100 nM; GI50 (HCC-2998 colon): 2450 nM; TGI (HCC-2998 colon): 19000 nM; GI50 (HL-60(TB) leukemia): 65.5 nM; TGI (HL-60(TB) leukemia): 3880 nM; GI50 (SK-MEL-2 melanoma): 672 nM; TGI (SK-MEL-2 melanoma): 11500 nM; GI50 (A549 NSCLC): 1120 nM; TGI (A549 NSCLC): 20700 nM; GI50 (T-47D breast): 1340 nM; TGI (T-47D breast): 47200 nM; GI50 (UACC-257 melanoma): 5090 nM; TGI (UACC-257 melanoma): 48400 nM; GI50 (SF-539 CNS): 66.4 nM; TGI (SF-539 CNS): 1760 nM; GI50 (SK-MEL-28 melanoma): 754 nM; TGI (SK-MEL-28 melanoma): 27600 nM; GI50 (SW-620 colon): 726 nM; TGI (SW-620 colon): 10700 nM; GI50 (HCT-116 colon): 1150 nM; TGI (HCT-116 colon): 23500 nM; GI50 (DU-145 prostate): 2300 nM; TGI (DU-145 prostate): 26300 nM; GI50 (NCI-H226 lung): 5980 nM; TGI (NCI-H226 lung): 68400 nM; GI50 (CCRF-CEM leukemia): 194 nM; TGI (CCRF-CEM leukemia): > 43300 nM; GI50 (LOX IMVI melanoma): 186 nM; TGI (LOX IMVI melanoma): 1090 nM; GI50 (SN12C renal): 3860 nM; TGI (SN12C renal): > 41400 nM; GI50 (NCI-H522 lung): 1190 nM; TGI (NCI-H522 lung): 4350 nM; GI50 (PC-3 prostate): 598 nM; TGI (PC-3 prostate): > 84300 nM; GI50 (RPMI-8226 leukemia): 32.4 nM; TGI (RPMI-8226 leukemia): 475 nM; GI50 (KM12 colon): 2470 nM; TGI (KM12 colon): 31900 nM; GI50 (SK-MEL-5 melanoma): 1330 nM; TGI (SK-MEL-5 melanoma): 5770 nM; GI50 (NCI-H460 lung): 1130 nM; TGI (NCI-H460 lung): 14900 nM; GI50 (U251 CNS): 95.9 nM; TGI (U251 CNS): 10900 nM; GI50 (OVCAR-8 ovarian): 3170 nM; TGI (OVCAR-8 ovarian): > 66400 nM; GI50 (M14 melanoma): 787 nM; TGI (M14 melanoma): 31000 nM; GI50 (TK-10 renal): 7970 nM; TGI (TK-10 renal): > 100000 nM; GI50 (OVCAR-5 ovarian): 2350 nM; TGI (OVCAR-5 ovarian): 21500 nM; GI50 (SK-OV-3 ovarian): 2300 nM; TGI (SK-OV-3 ovarian): 33300 nM; GI50 (HCT-15 colon): 1080 nM; TGI (HCT-15 colon): 9700 nM; GI50 (CAKI-1 renal): 430 nM; TGI (CAKI-1 renal): > 100000 nM; GI50 (UACC-62 melanoma): 230 nM; TGI (UACC-62 melanoma): 2980 nM; GI50 (NCI/ADR-RES ovarian): 3510 nM; TGI (NCI/ADR-RES ovarian): 68600 nM; GI50 (IGROV1 ovarian): 1850 nM; TGI (IGROV1 ovarian): 28500 nM; GI50 (HT29 colon): 1710 nM; TGI (HT29 colon): 5810 nM; GI50 (OVCAR-3 ovarian): 2580 nM; TGI (OVCAR-3 ovarian): 14300 nM; GI50 (SF-268 CNS): 2030 nM; TGI (SF-268 CNS): 30400 nM; GI50 (ACHN renal): 1790 nM; TGI (ACHN renal): 26600 nM; GI50 (OVCAR-4 ovarian): 3130 nM; TGI (OVCAR-4 ovarian): 41600 nM; GI50 (UO-31 renal): 365 nM; TGI (UO-31 renal): 1960 nM; GI50 (SR leukemia): 31.7 nM; TGI (SR leukemia): > 100000 nM; GI50 (MDA-MB-435): 1220 nM; TGI (MDA-MB-435): 27600 nM; GI50 (MCF7 breast): 338 nM; TGI (MCF7 breast): 19200 nM; GI50 (A498 renal): 298 nM; TGI (A498 renal): 32800 nM; GI50 (MOLT-4 leukemia): 67.1 nM; TGI (MOLT-4 leukemia): 1360 nM; GI50 (HOP-62 NSCLC): 564 nM; TGI (HOP-62 NSCLC): 12700 nM; GI50 (SNB-19 CNS): 1890 nM; TGI (SNB-19 CNS): 40300 nM; GI50 (SF-295 CNS): 28 nM; TGI (SF-295 CNS): 122 nM; GI50 (MALME-3M melanoma): 1380 nM; TGI (MALME-3M melanoma): 8400 nM; GI50 (HOP-92 NSCLC): 1030 nM; TGI (HOP-92 NSCLC): 17300 nM; GI50 (SNB-75 CNS): 208 nM; TGI (SNB-75 CNS): 15000 nM; GI50 (BT-549 breast): 974 nM; TGI (BT-549 breast): 20500 nM; GI50 (RXF 393 renal): 21.4 nM; TGI (RXF 393 renal): 337 nM

From PubChem BioAssay (NCI)
